Patent US20030215817A1, “Modulation of gene expression in formation of fatty atherosclerotic lesions” (priority 2003, published 2003)
Where a name gives a salt, the structure may show the parent alone.

Columns and labels:
[1] = system: REC1_3 (MspI ACGG 162) mRNA; test: quantified RT-PCR, Rec1_3; format: in vivo, rabbit; conditions: for Relative Abundance Rec1_3, 500 pg F: hypercholesterolemic plus lercanidipine racemate, eight weeks, H2 (normocholesterolemic)=1.0
Procedure: (§1) Nineteen of the isolated DST clones were further validated using RT-PCR analyses; the data are presented in FIGS. 6-24 and in Tables 5-23, below. For each DST examined, the optimal annealing temperature and reagent conditions were determined for the corresponding set of primers (see Table 25) based on results from a preliminary experiment. In eight separate reactions, each set of primers was assayed to find the optimal conditions by adjusting the following four parameters: primer concentration, dNTP concentration, MgCl2 concentration, and number of Taq polymerase units. Once optimal conditions were determined, each DST was run in duplicate multiple simultaneous reactions which usually included at least four dilutions of template (cDNA library), plus control reactions lacking template, and six sequential data points for numbers of cycles.
(§2) Reactions were performed using “Hot Start” PCR with the Clontech TaqStart antibody system (Cat. #5400-1). Each reaction contained 1 ml of the cDNA library dilution as template, determined amounts of AmpliTaq DNA polymerase (cat. #N808-0156), MgCl2, dNTPs (GibcoBRL cat. #10297-018), primer, and Clontech TaqStart Antibody in a 20 ml final reaction volume using 10×Taq buffer II (without MgCl2). Typically, a master mix containing all components except the template was prepared and aliquoted. Various templates were then added to these master mix samples and 20 ml volumes were subsequently dispensed into individual reaction tubes. At various times during the PCR run, tubes were removed sequentially on a predetermined schedule in order to quantitate expression of the target DST over a “window” of cycle times. After amplification, the samples were quantified via fluorimetry.
(§3) PCR was performed at annealing temperatures that were five degrees above the average melting temperature of each primer pair. For primers greater than 10 bases (in a 0.05M salt solution), melting temperature was calculated using the following formula: Tm=59.9+41[% GC]−[675/Primer Length], where %GC is the decimal value. Following determination of the average melting temperature of the primer pair, the annealing temperature was determined by adding five degrees to the average melting temperature. PCR was performed using the following program: 1) 95 degrees Celsius, 3 minutes; 2) 95 degrees Celsius, 30 seconds; 3) TM+5 degrees Celsius, 30 seconds; 4) 72 degrees Celsius, for a time dependent on target length at 16 bp/second; 5) repeat steps 2-4 33 more cycles; 6) 72 degrees Celsius, 3 minutes; 7) 14 degrees Celsius, forever.
(§4) Following temperature cycling, 2 ml of the PCR reaction was added to 140 ml of a 1:280 dilution of PicoGreen (Molecular Probes cat. #P-11495 (10×100 ml)) in TE pH 7.5 in a 96-well Costar UV microtiter plate (Fisher cat. #07-200623). The samples were mixed gently for 1.5 minutes and allowed to equilibrate at room temperature in the dark for 15 minutes. The concentration of the PCR products was quantified by fluorimetry using a PerSeptive Biosystems CytoFluor series 4000 multi-well plate reader.
(§5) Background fluorescence was determined by using duplicate control samples that were cycled with all reaction components except the template. The mean value from these duplicate background control samples was subtracted from the corresponding experimental values prior to analyzing results. The sensitivity of the PicoGreen dsDNA assay is reported to be 250 pg/ml (50 pg dsDNA in a […] assay volume) using a fluorescence microplate reader such as was used in these measurements. […]

REC1_17 (TCGT 199) mRNA = test: quantified RT-PCR, Rec1_17; format: in vivo, rabbit; conditions: for Relative Abundance Rec1_17, 20 pg F: hypercholesterolemic plus lercanidipine racemate, eight weeks, H2 (normocholesterolemic)=1.0
Procedure: as §1, §2, §3, §4, §5

[2] = preliminary kinetic studies: plasma levels after subcutaneous administration; format: in vivo; conditions: rabbit, sc, rabbits, after 7 days from the administration
Procedure: The doses of lercanidipine used were determined from preliminary kinetic studies.

[3] = (R)-enantiomer compared with the other enantiomer of lercanidipine; cited from earlier work

Compound | Relative Abundance Rec1_3, 500 pg F ([1]; cycle 26) | Relative Abundance Rec1_3, 500 pg F ([1]; cycle 28) | Relative Abundance Rec1_3, 500 pg F ([1]; cycle 30) | Relative Abundance Rec1_3, 500 pg F ([1]; cycle 32) | Relative Abundance Rec1_3, 500 pg F ([1]; cycle 34) | expression of Rec1_3 at 8 weeks (RT-PCR study), in words ([1]; hypercholesterolemic animals receiving lercanidipine racemate, compared with hypercholesterolemic animals at 14 days) | Relative Abundance Rec1_17, 20 pg F (REC1_17 (TCGT 199) mRNA; cycle 24) | Relative Abundance Rec1_17, 20 pg F (REC1_17 (TCGT 199) mRNA; cycle 26) | Relative Abundance Rec1_17, 20 pg F (REC1_17 (TCGT 199) mRNA; cycle 28) | Relative Abundance Rec1_17, 20 pg F (REC1_17 (TCGT 199) mRNA; cycle 30) | Relative Abundance Rec1_17, 20 pg F (REC1_17 (TCGT 199) mRNA; cycle 32) | Relative Abundance Rec1_17, 20 pg F (REC1_17 (TCGT 199) mRNA; cycle 34) | expression of Rec1_17 at 8 weeks (RT-PCR study), in words (REC1_17 (TCGT 199) mRNA; hypercholesterolemic animals receiving lercanidipine) | concentration at 7 days ([2]; subcutaneous administration of 1 mg/kg) | concentration at 7 days ([2]; subcutaneous administration of 3 mg/kg) | effectiveness in lowering blood pressure, less effective [3]
COC(=O)C1=C(C)NC(C)=C(C(=O)OC(C)(C)CN(C)CCC(c2ccccc2)c2ccccc2)C1c1cccc([N+](=O)[O-])c1 (racemic) [lercanidipine, lercanidipine hydrochloride] | 0.0 | 0.0 | 0.0 | 0.1 | 0.4 | lower | 0.01 | 0.00 | 0.09 | 0.08 | 0.21 | 0.43 | decreased | 500 ng/g | 3200 ng/g | –
COC(=O)C1=C(C)NC(C)=C(C(=O)OC(C)(C)CN(C)CCC(c2ccccc2)c2ccccc2)[C@@H]1c1cccc([N+](=O)[O-])c1.Cl (single isomer, unassigned) [(R)-lercanidipine] | – | – | – | – | – | – | – | – | – | – | – | – | – | – | – | 2-3 orders of magnitude
